Measured values published in US12453726B2, “Methods of using factor B inhibitors” (priority 2020, dated 2025).
Structures can show the parent of a compound that is named as a salt.

Tests used:
[1] = system: patients with C3 glomerulopathy; experiment: Study CLNP023X2202, safety and tolerability; format: in vivo, human; details: 200 mg b.i.d.
[2] = system: patients with IgA nephropathy; experiment: Study CLNP023X2203, safety and tolerability; format: in vivo, human; details: 200 mg b.i.d.
alternative pathway = experiment: Exposure-response model from First In Human study data (Wieslab assay); details: dose of about 200 mg b.i.d., in >70% of subjects; model built on healthy volunteer data
Experimental: The exposure-response model developed with data from the First In Human (FIH) study with LNP023 hydrochloride in healthy volunteers predicts that a dose of about 200 mg b.i.d. would be needed to achieve >90% inhibition of the alternative pathway (Wieslab assay) in >70% of subjects. Given the risk of hemolysis and breakthroughs in cases of insufficient inhibition of complement activity, full inhibition is desired and modelling results provide additional support for the choice of the dose of 200 mg b.i.d. for PNH.

[3] = system: anti-C5 antibody treatment naive PNH patients; experiment: Phase 2 study interim analysis: LNP023 hydrochloride monotherapy in anti-C5 antibody treatment naive PNH patients; format: in vivo, human
Experimental: (§1) The dose of 200 mg LNP023 hydrochloride b.i.d. as continuous treatment has been selected for this Phase 3 study primarily based on the available efficacy and safety data obtained at the time of interim analyses from the two ongoing Phase 2 PNH studies (ClinicalTrials.gov Identifier: NCT03439839 and NCT03896152) and is supported by PKPD modeling results.
In the Phase 2 study (NCT03439839) in anti-C5 antibody treatment naive patients, participants received LNP023 hydrochloride monotherapy with sequential dose increments at Week 4 from LNP023 hydrochloride 25 mg b.i.d. to 100 mg b.i.d (sequence 1) or LNP023 hydrochloride 50 mg b.i.d. to 200 mg b.i.d. (sequence 2). An IA was conducted after 8 patients were randomized and 7 patients completed Week 8 visit assessments.
(§2) The hematological response participants achieved with LNP023 hydrochloride 200 mg b.i.d. add-on therapy was maintained with LNP023 hydrochloride monotherapy during the extension period (at the time of the IA) when eculizumab treatment was discontinued in 5/10 participants who continued with LNP023 hydrochloride monotherapy. Following the IA, two additional participants discontinued eculizumab treatment.

[4] = system: PNH patients with active hemolysis despite treatment with eculizumab; experiment: Phase 2 study CLNP023X2201 interim analysis: LNP023 hydrochloride add-on to eculizumab in PNH patients with active hemolysis; format: in vivo, human
Experimental: as §1
In the CLNP023X2201 study in patients with active hemolysis despite treatment with eculizumab, LNP023 hydrochloride at a dose of 200 mg b.i.d. was administered to 10 PNH participants (cohort 1) and at a dose of 50 mg b.i.d. to 6 PNH participants (cohort 2). An interim analysis (IA) was conducted after 10 participants (cohort 1) completed at least 12 weeks of treatment with LNP023 hydrochloride 200 mg b.i.d. add-on treatment to eculizumab.
as §2

[5] = 200 mg b.i.d., PNH participants
[6] = 200 mg b.i.d. added to eculizumab
[7] = 200 mg b.i.d. as add-on to eculizumab, cohort 1, interim analysis

SMILES: CCO[C@H]1CCN(Cc2c(OC)cc(C)c3[nH]ccc23)[C@H](c2ccc(C(=O)O)cc2)C1 [LNP023 hydrochloride, 4-((2S,4S)-(4-ethoxy-1-((5-methoxy-7-methyl-1H-indol-4-yl)methyl)piperidin-2-yl))benzoic acid hydrochloride]
- safety and tolerability [1]: safe and well tolerated
- safety and tolerability [2]: safe and well tolerated
- predicted inhibition of the alternative pathway (Wieslab assay) (alternative pathway): > 90%
- safety and tolerability [3, 5]: safe and well tolerated
- bilirubin (extravascular hemolysis) ([3]; monotherapy): decrease
- haptoglobin (extravascular hemolysis) ([3]; monotherapy): increase
- reticulocytes (extravascular hemolysis) ([3]; monotherapy): decrease
- transfusion-free hemoglobin ([3]; monotherapy, dose levels ≥25 mg b.i.d.): early transfusion-free hemoglobin increase in the majority of participants
- LDH reduction from baseline ([3]; monotherapy, dose levels ≥25 mg b.i.d., all participants): more than 60%
- C3 deposition [4, 6]: fully reversed
- Fragment Bb (target engagement) [4, 6]: profound and sustained reduction
- inhibition of the complement alternative pathway [4, 6]: sustained inhibition
- survival of PNH red blood cells [4, 6]: prolonged
- bilirubin (control of EVH) [4, 7]: reduction
- haptoglobin (control of EVH) [4, 7]: increase
- hemoglobin in the absence of red blood cell transfusions [4, 7]: normalization of hemoglobin in the majority of patients
- reticulocytes (control of EVH) [4, 7]: reduction
- control of IVH demonstrated by LDH ([4]; 200 mg b.i.d. as add-on to eculizumab, cohort 1, interim analysis after at least 12 weeks): LDH reduction
- hematological response during the extension period after eculizumab was discontinued ([4]; 200 mg b.i.d. monotherapy, 5/10 participants who discontinued eculizumab): maintained
- safety and tolerability [4, 5]: safe and well tolerated
- response at 50 mg b.i.d. ([4]; cohort 2, 50 mg b.i.d., preliminary, three participants required up-titration to 200 mg b.i.d.): suboptimal response
